Measurements from PubChem BioAssay (NCI).
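Method: 48-hour compound exposure of cells in 96-well plates, five concentrations, linear interpolation of endpoints. TGI: concentration producing complete growth inhibition.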

How the values were obtained:
Assay in all cases: inhibition of tumour cell growth, NCI panel, 48 h
MDA-N = test system: MDA-N
SF-295 CNS = test system: SF-295 CNS
SK-MEL-5 melanoma = test system: SK-MEL-5 melanoma
HCT-116 colon = test system: HCT-116 colon
786-0 renal = test system: 786-0 renal
SW-620 colon = test system: SW-620 colon
NCI/ADR-RES ovarian = test system: NCI/ADR-RES ovarian
SK-OV-3 ovarian = test system: SK-OV-3 ovarian
HS 578T breast = test system: HS 578T breast
PC-3 prostate = test system: PC-3 prostate
MDA-MB-231 breast = test system: MDA-MB-231 breast
SK-MEL-2 melanoma = test system: SK-MEL-2 melanoma
SN12C renal = test system: SN12C renal
MOLT-4 leukemia = test system: MOLT-4 leukemia
LOX IMVI melanoma = test system: LOX IMVI melanoma
MALME-3M melanoma = test system: MALME-3M melanoma
EKVX NSCLC = test system: EKVX NSCLC
MCF7 breast = test system: MCF7 breast
A549 NSCLC = test system: A549 NSCLC
SF-539 CNS = test system: SF-539 CNS
OVCAR-5 ovarian = test system: OVCAR-5 ovarian
K-562 leukemia = test system: K-562 leukemia
CAKI-1 renal = test system: CAKI-1 renal
UACC-257 melanoma = test system: UACC-257 melanoma
IGROV1 ovarian = test system: IGROV1 ovarian
M14 melanoma = test system: M14 melanoma
HCC-2998 colon = test system: HCC-2998 colon
HCT-15 colon = test system: HCT-15 colon
HT29 colon = test system: HT29 colon
NCI-H460 lung = test system: NCI-H460 lung
OVCAR-8 ovarian = test system: OVCAR-8 ovarian
DU-145 prostate = test system: DU-145 prostate
RXF 393 renal = test system: RXF 393 renal
HL-60(TB) leukemia = test system: HL-60(TB) leukemia
NCI-H226 lung = test system: NCI-H226 lung
SR leukemia = test system: SR leukemia
ACHN renal = test system: ACHN renal
KM12 colon = test system: KM12 colon
T-47D breast = test system: T-47D breast
SK-MEL-28 melanoma = test system: SK-MEL-28 melanoma
SF-268 CNS = test system: SF-268 CNS
NCI-H23 lung = test system: NCI-H23 lung
OVCAR-4 ovarian = test system: OVCAR-4 ovarian
U251 CNS = test system: U251 CNS
UO-31 renal = test system: UO-31 renal
NCI-H522 lung = test system: NCI-H522 lung
HOP-62 NSCLC = test system: HOP-62 NSCLC
BT-549 breast = test system: BT-549 breast
CCRF-CEM leukemia = test system: CCRF-CEM leukemia
UACC-62 melanoma = test system: UACC-62 melanoma
SNB-19 CNS = test system: SNB-19 CNS
SNB-75 CNS = test system: SNB-75 CNS
COLO 205 colon = test system: COLO 205 colon
TK-10 renal = test system: TK-10 renal
RPMI-8226 leukemia = test system: RPMI-8226 leukemia
OVCAR-3 ovarian = test system: OVCAR-3 ovarian
A498 renal = test system: A498 renal
MDA-MB-435 = test system: MDA-MB-435

O=C1CC[C@@]23CC(=O)O[C@@H]2CCCC3C1 (some centres not stated)
TGI (MDA-N): > 100 µM
TGI (SF-295 CNS): > 100 µM
TGI (SK-MEL-5 melanoma): > 100 µM
TGI (HCT-116 colon): > 100 µM
TGI (786-0 renal): > 100 µM
TGI (SW-620 colon): > 100 µM
TGI (NCI/ADR-RES ovarian): > 100 µM
TGI (SK-OV-3 ovarian): > 100 µM
TGI (HS 578T breast): > 100 µM
TGI (PC-3 prostate): > 100 µM
TGI (MDA-MB-231 breast): > 100 µM
TGI (SK-MEL-2 melanoma): > 100 µM
TGI (SN12C renal): > 100 µM
TGI (MOLT-4 leukemia): > 100 µM
TGI (LOX IMVI melanoma): > 100 µM
TGI (MALME-3M melanoma): > 100 µM
TGI (EKVX NSCLC): > 100 µM
TGI (MCF7 breast): > 100 µM
TGI (A549 NSCLC): > 100 µM
TGI (SF-539 CNS): > 100 µM
TGI (OVCAR-5 ovarian): > 100 µM
TGI (K-562 leukemia): > 100 µM
TGI (CAKI-1 renal): > 100 µM
TGI (UACC-257 melanoma): > 100 µM
TGI (IGROV1 ovarian): > 100 µM
TGI (M14 melanoma): > 100 µM
TGI (HCC-2998 colon): > 100 µM
TGI (HCT-15 colon): > 100 µM
TGI (HT29 colon): > 100 µM
TGI (NCI-H460 lung): > 100 µM
TGI (OVCAR-8 ovarian): > 100 µM
TGI (DU-145 prostate): > 100 µM
TGI (RXF 393 renal): > 100 µM
TGI (HL-60(TB) leukemia): > 100 µM
TGI (NCI-H226 lung): > 100 µM
TGI (SR leukemia): > 100 µM
TGI (ACHN renal): > 100 µM
TGI (KM12 colon): > 100 µM
TGI (T-47D breast): > 100 µM
TGI (SK-MEL-28 melanoma): > 100 µM
TGI (SF-268 CNS): > 100 µM
TGI (NCI-H23 lung): > 100 µM
TGI (OVCAR-4 ovarian): > 100 µM
TGI (U251 CNS): > 100 µM
TGI (UO-31 renal): > 100 µM
TGI (NCI-H522 lung): > 100 µM
TGI (HOP-62 NSCLC): > 100 µM
TGI (BT-549 breast): > 100 µM
TGI (CCRF-CEM leukemia): > 100 µM
TGI (UACC-62 melanoma): > 100 µM
TGI (SNB-19 CNS): > 100 µM
TGI (SNB-75 CNS): > 100 µM
TGI (COLO 205 colon): > 100 µM
TGI (TK-10 renal): > 100 µM
TGI (RPMI-8226 leukemia): > 100 µM

C=C1C[C@@H]2O[C@H]3[C@H]4[C@@H](C[C@@H](C)[C@@H](OC(C)=O)[C@H]42)[C@@H](C)CO[C@@]3(C)[C@H](OC(=O)CCCCCCC)CC1=O
TGI (MDA-N): 31 µM
TGI (SF-295 CNS): 33.6 µM
TGI (SK-MEL-5 melanoma): 28.4 µM
TGI (HCT-116 colon): 32 µM
TGI (786-0 renal): 29.1 µM
TGI (SW-620 colon): 29.8 µM
TGI (NCI/ADR-RES ovarian): 35.5 µM
TGI (HS 578T breast): 39.7 µM
TGI (PC-3 prostate): 22.5 µM
TGI (MDA-MB-231 breast): 36.7 µM
TGI (SK-MEL-2 melanoma): 35 µM
TGI (SN12C renal): 30.2 µM
TGI (MOLT-4 leukemia): 40.8 µM
TGI (LOX IMVI melanoma): 30.1 µM
TGI (EKVX NSCLC): 32.9 µM
TGI (MCF7 breast): 35.9 µM
TGI (A549 NSCLC): 35.2 µM
TGI (SF-539 CNS): 38 µM
TGI (OVCAR-5 ovarian): 21.1 µM
TGI (CAKI-1 renal): 33.5 µM
TGI (UACC-257 melanoma): 30.7 µM
TGI (IGROV1 ovarian): 48.4 µM
TGI (M14 melanoma): 29.1 µM
TGI (OVCAR-3 ovarian): 32 µM
TGI (HCC-2998 colon): 30.8 µM
TGI (HCT-15 colon): 28.9 µM
TGI (A498 renal): 32.5 µM
TGI (HT29 colon): > 100 µM
TGI (NCI-H460 lung): 24.2 µM
TGI (OVCAR-8 ovarian): 30.9 µM
TGI (DU-145 prostate): 31.4 µM
TGI (NCI-H226 lung): 42.9 µM
TGI (SR leukemia): 37.2 µM
TGI (ACHN renal): 29.5 µM
TGI (KM12 colon): 26.2 µM
TGI (T-47D breast): 31.5 µM
TGI (MDA-MB-435): 30.8 µM
TGI (SK-MEL-28 melanoma): 28.7 µM
TGI (SF-268 CNS): 36.9 µM
TGI (NCI-H23 lung): 40.1 µM
TGI (U251 CNS): 32.5 µM
TGI (UO-31 renal): 29.5 µM
TGI (NCI-H522 lung): 42.6 µM
TGI (HOP-62 NSCLC): 29.8 µM
TGI (BT-549 breast): 36.9 µM
TGI (CCRF-CEM leukemia): 23.8 µM
TGI (UACC-62 melanoma): 32.1 µM
TGI (SNB-19 CNS): > 100 µM
TGI (SNB-75 CNS): 24.8 µM
TGI (COLO 205 colon): 27.3 µM
TGI (TK-10 renal): 32.7 µM
TGI (RPMI-8226 leukemia): 13.1 µM
